This is an account of results in US11638707B2, “Substituted amino triazoles useful as chitinase inhibitors” (Molecure S.A., priority 2019, dated 2023).

One series deals with hERG channel (Homo sapiens (Human), UniProt Q12809). In words: Human ERG channel binding assay (fluorescence polarization). The conditions noted are these: Table 1; tracer displacement, 4 h at room temperature. The method, boiled down: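 Serially diluted compounds were incubated with a hERG-containing membrane fraction and a high-affinity red-shifted fluorescent hERG ligand. Displacement of the tracer was read by fluorescence polarization, and IC50 values were derived from the concentration-response curves.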
Chain of hERG channel (Q12809 whole entry): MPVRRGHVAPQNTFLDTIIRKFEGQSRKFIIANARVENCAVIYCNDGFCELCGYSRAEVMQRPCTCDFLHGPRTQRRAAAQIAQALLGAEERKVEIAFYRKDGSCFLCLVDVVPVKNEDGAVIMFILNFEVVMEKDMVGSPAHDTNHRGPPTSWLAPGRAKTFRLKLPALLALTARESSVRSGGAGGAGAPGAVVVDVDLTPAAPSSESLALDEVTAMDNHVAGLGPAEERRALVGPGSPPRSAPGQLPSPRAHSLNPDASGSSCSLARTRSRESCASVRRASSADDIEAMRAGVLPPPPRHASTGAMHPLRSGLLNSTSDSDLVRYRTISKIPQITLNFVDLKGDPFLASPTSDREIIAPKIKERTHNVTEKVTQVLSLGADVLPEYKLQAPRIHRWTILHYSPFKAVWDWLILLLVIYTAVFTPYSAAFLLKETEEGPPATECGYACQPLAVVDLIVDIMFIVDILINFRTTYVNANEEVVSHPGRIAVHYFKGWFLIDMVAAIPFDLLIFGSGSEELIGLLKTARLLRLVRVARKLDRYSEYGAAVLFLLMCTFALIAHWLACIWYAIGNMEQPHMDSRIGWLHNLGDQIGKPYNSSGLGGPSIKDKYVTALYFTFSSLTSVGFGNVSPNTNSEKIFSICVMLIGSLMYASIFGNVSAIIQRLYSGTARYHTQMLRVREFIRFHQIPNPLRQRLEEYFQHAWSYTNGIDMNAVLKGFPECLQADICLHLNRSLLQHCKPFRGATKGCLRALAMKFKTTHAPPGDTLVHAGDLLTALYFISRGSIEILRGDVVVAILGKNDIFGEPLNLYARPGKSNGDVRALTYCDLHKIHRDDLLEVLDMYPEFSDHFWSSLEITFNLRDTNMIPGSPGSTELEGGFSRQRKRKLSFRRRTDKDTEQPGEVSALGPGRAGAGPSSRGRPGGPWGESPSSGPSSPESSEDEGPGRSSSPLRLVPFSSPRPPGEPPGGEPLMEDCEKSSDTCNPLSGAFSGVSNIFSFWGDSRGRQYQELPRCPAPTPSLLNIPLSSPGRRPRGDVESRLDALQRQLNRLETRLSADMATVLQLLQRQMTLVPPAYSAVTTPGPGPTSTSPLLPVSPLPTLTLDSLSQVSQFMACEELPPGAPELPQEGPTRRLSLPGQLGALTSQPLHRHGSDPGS

The target in the next series is recombinant human AMCase (Homo sapiens (Human), UniProt Q9BZP6). In words: Human AMCase activity assay. The conditions noted are these: citrate buffer pH 5.2, 37° C., 60 minutes, read-out: hAMCase, IC50. The series is classed as biochemical. The method, boiled down: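 Recombinant hAMCase hydrolysed 4-methylumbelliferyl β-D-N,N′-diacetylchitobioside in citrate buffer pH 5.2, run 60 min at 37 °C in the dark with shaking. Released 4MU fluorescence was read at 460 nm under basic pH, and IC50 values were fitted from the compound dilutions.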
Chain of recombinant human AMCase (Q9BZP6 22-476): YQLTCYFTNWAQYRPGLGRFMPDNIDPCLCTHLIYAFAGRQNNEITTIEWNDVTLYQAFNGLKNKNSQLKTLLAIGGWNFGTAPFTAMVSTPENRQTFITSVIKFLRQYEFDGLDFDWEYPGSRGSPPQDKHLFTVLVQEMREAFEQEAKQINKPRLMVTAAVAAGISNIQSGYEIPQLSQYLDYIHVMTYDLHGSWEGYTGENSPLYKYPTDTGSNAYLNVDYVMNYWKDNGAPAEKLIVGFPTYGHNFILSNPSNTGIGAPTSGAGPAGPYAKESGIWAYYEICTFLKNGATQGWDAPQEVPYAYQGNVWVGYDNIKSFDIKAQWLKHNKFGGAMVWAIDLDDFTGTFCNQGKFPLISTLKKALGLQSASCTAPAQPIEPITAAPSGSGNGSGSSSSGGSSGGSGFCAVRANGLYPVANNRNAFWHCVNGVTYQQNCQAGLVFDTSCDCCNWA

The target in the next series is recombinant human CHIT1 (Homo sapiens (Human), UniProt Q13231). In words: Human CHIT1 activity assay. The series is classed as biochemical. Conditions: recombinant human CHIT1, citrate buffer pH 5.2, 37° C., 60 minutes; read-out: hCHIT1, IC50. A digest of the protocol:
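Recombinant human CHIT1 hydrolysed 4-methylumbelliferyl β-D-N,N′,N″-triacetylchitotriose in citrate buffer, pH 5.2, for 60 minutes at 37° C in the dark with shaking. Released 4MU was read by fluorescence at 460 nm under basic pH; IC50 values were calculated from dilution series.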

Chain of recombinant human CHIT1 (Q13231 22-466): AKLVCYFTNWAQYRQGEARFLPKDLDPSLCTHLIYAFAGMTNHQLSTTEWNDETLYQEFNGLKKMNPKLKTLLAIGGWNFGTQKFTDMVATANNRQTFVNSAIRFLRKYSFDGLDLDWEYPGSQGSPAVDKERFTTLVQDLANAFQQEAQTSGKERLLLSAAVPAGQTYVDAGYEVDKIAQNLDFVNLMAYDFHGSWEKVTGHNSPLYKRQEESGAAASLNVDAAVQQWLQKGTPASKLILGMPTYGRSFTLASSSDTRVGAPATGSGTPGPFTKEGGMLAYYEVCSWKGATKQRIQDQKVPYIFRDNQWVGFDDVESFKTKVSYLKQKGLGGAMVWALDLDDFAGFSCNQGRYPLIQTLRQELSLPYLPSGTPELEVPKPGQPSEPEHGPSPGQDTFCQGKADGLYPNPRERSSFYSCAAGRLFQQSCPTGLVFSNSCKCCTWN

In the case of `Nc1nnc(N2CCC(N3C[C@H](Cn4ccnc4)OC[C@@H]3Cc3ccc(Cl)cc3)CC2)[nH]1` [Example 47, 5-(4-((2R,5S)-2-((1H-imidazol-1-yl)methyl)-5-(4-chlorobenzyl)morpholino)-piperidin-1-yl)-4H-1,2,4-triazol-3-amine 2,2,2-trifluoroacetate], the IC50 was 10000 to 25000 nM on hERG channel, less than 100 nM on recombinant human AMCase and less than 100 nM at recombinant human CHIT1.

Consider `CN(C)C(=O)OC[C@H]1CN(C2CCN(c3nnc(N)[nH]3)CC2)[C@@H](Cc2ccc(Cl)cc2)CO1` [Example 48, ((2R,5S)-4-(1-(5-amino-4H-1,2,4-triazol-3-yl)piperidin-4-yl)-5-(4-chlorobenzyl)morpholin-2-yl)methyl dimethylcarbamate 2,2,2-trifluoroacetate], for which the IC50 on hERG channel is 25000 to 100000 nM; at recombinant human AMCase it was less than 100 nM; at recombinant human CHIT1, less than 100 nM.

Turning to `Cc1coc([C@H]2CN(C3CCN(c4nnc(N)[nH]4)CC3)[C@@H](Cc3ccc(Cl)cc3)CO2)n1` [Example 49, 5-(4-((2R,5S)-5-(4-chlorobenzyl)-2-(4-methyloxazol-2-yl)morpholino)piperidin-1-yl)-4H-1,2,4-triazol-3-amine 2,2,2-trifluoroacetate], the IC50 was 10000 to 25000 nM on hERG channel, less than 100 nM on recombinant human AMCase and less than 100 nM at recombinant human CHIT1.

For the compound `Cc1nc([C@H]2CN(C3CCN(c4nnc(N)[nH]4)CC3)[C@@H](Cc3ccc(Cl)cc3)CO2)oc1C` [Example 50, 5-(4-((2R,5S)-5-(4-chlorobenzyl)-2-(4,5-dimethyloxazol-2-yl)morpholino)piperidin-1-yl)-4H-1,2,4-triazol-3-amine 2,2,2-trifluoroacetate], the IC50 on hERG channel is 1000 to 10000 nM; on recombinant human AMCase, less than 100 nM; on recombinant human CHIT1, less than 100 nM.

On to `CC1CN(C[C@H]2CN(C3CCN(c4nnc(N)[nH]4)CC3)[C@@H](Cc3ccc(Cl)cc3)CO2)C1` [Example 51, 5-(4-((2S,5S)-5-(4-chlorobenzyl)-2-((3-methylazetidin-1-yl)methyl)morpholino)-piperidin-1-yl)-4H-1,2,4-triazol-3-amine 2,2,2-trifluoroacetate], for which the IC50 at hERG channel is 25000 to 100000 nM; on recombinant human AMCase, less than 100 nM; on recombinant human CHIT1 it was 100 to 1000 nM.

For `Nc1nnc(N2CCC(N3C[C@H](CN4CCCCC4)OC[C@@H]3Cc3ccc(Cl)cc3)CC2)[nH]1` [Example 52, 5-(4-((2S,5S)-5-(4-chlorobenzyl)-2-(piperidin-1-ylmethyl)morpholino)piperidin-1-yl)-4H-1,2,4-triazol-3-amine 2,2,2-trifluoroacetate], the IC50 is 25000 to 100000 nM at hERG channel, less than 100 nM at recombinant human AMCase and 100 to 1000 nM on recombinant human CHIT1.

Consider `Nc1nnc(N2CCC(N3C[C@H](C(=O)N4CCC(F)(F)CC4)OC[C@@H]3Cc3ccc(Cl)cc3)CC2)[nH]1` [Example 53, ((2R,5S)-4-(1-(5-amino-4H-1,2,4-triazol-3-yl)piperidin-4-yl)-5-(4-chlorobenzyl)-morpholin-2-yl)(4,4-difluoropiperidin-1-yl)methanone 2,2,2-trifluoroacetate], for which the IC50 was 25000 to 100000 nM on hERG channel, less than 100 nM at recombinant human AMCase and 100 to 1000 nM at recombinant human CHIT1.

Turning to `Nc1nnc(N2CCC(N3C[C@H](C(=O)N4CCC(F)(F)C4)OC[C@@H]3Cc3ccc(Cl)cc3)CC2)[nH]1` [Example 54, ((2R,5S)-4-(1-(5-amino-4H-1,2,4-triazol-3-yl)piperidin-4-yl)-5-(4-chlorobenzyl)-morpholin-2-yl)(3,3-difluoropyrrolidin-1-yl)methanone 2,2,2-trifluoroacetate], the IC50 is more than 100000 nM at hERG channel, less than 100 nM on recombinant human AMCase and 100 to 1000 nM at recombinant human CHIT1.

`Nc1nnc(N2CCC(N3C[C@H](N4CCOCC4)C[C@@H]3Cc3ccc(Cl)cc3)CC2)[nH]1` [Example 55, 5-(4-((2S,4R)-2-(4-chlorobenzyl)-4-morpholinopyrrolidin-1-yl)piperidin-1-yl)-4H-1,2,4-triazol-3-amine 2,2,2-trifluoroacetate]: the IC50 at hERG channel was 25000 to 100000 nM; at recombinant human AMCase, less than 100 nM; at recombinant human CHIT1, less than 100 nM.

For `Nc1nnc(N2CCC(N3CC(F)(F)CC[C@@H]3Cc3ccc(Cl)cc3)CC2)[nH]1` [Example 57, (R)-5-(2-(4-chlorobenzyl)-5,5-difluoro-[1,4′-bipiperidin]-1′-yl)-4H-1,2,4-triazol-3-amine 2,2,2-trifluoroacetate], the IC50 on hERG channel is more than 100000 nM; on recombinant human AMCase it was less than 100 nM; on recombinant human CHIT1, less than 100 nM.

As to `Nc1nnc(N2CCC(N3C[C@H](N4CCOCC4)CC[C@@H]3Cc3ccc(Cl)cc3)CC2)[nH]1` [Example 58, 5-((2R,5R)-2-(4-chlorobenzyl)-5-morpholino-[1,4′-bipiperidin]-1′-yl)-4H-1,2,4-triazol-3-amine 2,2,2-trifluoroacetate], the IC50 at hERG channel was 10000 to 25000 nM; at recombinant human AMCase, less than 100 nM; at recombinant human CHIT1 it was 100 to 1000 nM.

Regarding `Nc1nnc(N2CCC(N3C[C@H](C(=O)N4CCCC4)OC[C@@H]3Cc3ccc(Cl)cc3)CC2)[nH]1` [Example 60, ((2R,5S)-4-(1-(5-amino-4H-1,2,4-triazol-3-yl)piperidin-4-yl)-5-(4-chlorobenzyl)-morpholin-2-yl)(pyrrolidin-1-yl)methanone 2,2,2-trifluoroacetate], the IC50 on hERG channel is more than 100000 nM; on recombinant human AMCase, less than 100 nM; at recombinant human CHIT1 it was 100 to 1000 nM.

Take `CC1CN(C(=O)[C@H]2CN(C3CCN(c4nnc(N)[nH]4)CC3)[C@@H](Cc3ccc(Cl)cc3)CO2)C1` [Example 61, ((2R,5S)-4-(1-(5-amino-4H-1,2,4-triazol-3-yl)piperidin-4-yl)-5-(4-chlorobenzyl)-morpholin-2-yl)(3-methylazetidin-1-yl)methanone 2,2,2-trifluoroacetate]: the half-inhibitory concentration (IC50) on hERG channel is more than 100000 nM; on recombinant human AMCase it was less than 100 nM; at recombinant human CHIT1, less than 100 nM.

`Nc1nnc(N2CCC(N3C[C@H](C(=O)N4CC(F)C4)OC[C@@H]3Cc3ccc(Cl)cc3)CC2)[nH]1` [Example 62, ((2R,5S)-4-(1-(5-amino-4H-1,2,4-triazol-3-yl)piperidin-4-yl)-5-(4-chlorobenzyl)-morpholin-2-yl)(3-fluoroazetidin-1-yl)methanone 2,2,2-trifluoroacetate]: the IC50 at hERG channel is more than 100000 nM; on recombinant human AMCase, less than 100 nM; on recombinant human CHIT1, less than 100 nM.

In the case of `Nc1nnc(N2CCC(N3C[C@H](C(=O)N4CCOCC4)OC[C@@H]3Cc3ccc(Cl)cc3)CC2)[nH]1` [Example 63, ((2R,5S)-4-(1-(5-amino-4H-1,2,4-triazol-3-yl)piperidin-4-yl)-5-(4-chlorobenzyl)-morpholin-2-yl)(morpholino)methanone 2,2,2-trifluoroacetate], the IC50 on hERG channel was more than 100000 nM; on recombinant human AMCase it was less than 100 nM; at recombinant human CHIT1, 100 to 1000 nM.

For `CC(C)(O)[C@H]1CN(C2CCN(c3nnc(N)[nH]3)CC2)[C@@H](Cc2ccc(Br)cc2)CO1` [Example 64, 2-((2R,5S)-4-(1-(5-amino-4H-1,2,4-triazol-3-yl)piperidin-4-yl)-5-(4-bromobenzyl)-morpholin-2-yl)propan-2-ol 2,2,2-trifluoroacetate], the IC50 at hERG channel is more than 100000 nM; at recombinant human AMCase it was less than 100 nM; on recombinant human CHIT1, less than 100 nM.

For `CC(C)NC(=O)[C@H]1CN(C2CCN(c3nnc(N)[nH]3)CC2)[C@@H](Cc2ccc(Cl)cc2)CO1` [Example 65, (2R,5S)-4-(1-(5-amino-4H-1,2,4-triazol-3-yl)piperidin-4-yl)-5-(4-chlorobenzyl)-N-isopropylmorpholine-2-carboxamide 2,2,2-trifluoroacetate], the results for the IC50 at hERG channel, at recombinant human AMCase and at recombinant human CHIT1 were more than 100000 nM, less than 100 nM and 100 to 1000 nM, respectively.

`CC(C)(C)NC(=O)[C@H]1CN(C2CCN(c3nnc(N)[nH]3)CC2)[C@@H](Cc2ccc(Cl)cc2)CO1` [Example 66, (2R,5S)-4-(1-(5-amino-4H-1,2,4-triazol-3-yl)piperidin-4-yl)-N-(tert-butyl)-5-(4-chlorobenzyl)morpholine-2-carboxamide 2,2,2-trifluoroacetate]: the IC50 on hERG channel was more than 100000 nM; at recombinant human AMCase it was less than 100 nM; on recombinant human CHIT1, 100 to 1000 nM.

Take `C[C@@H](O)[C@H]1CN(C2CCN(c3nnc(N)[nH]3)CC2)[C@@H](Cc2ccc(Cl)cc2)CO1` [Example 67, (R)-1-((2R,5S)-4-(1-(5-amino-4H-1,2,4-triazol-3-yl)piperidin-4-yl)-5-(4-chlorobenzyl)morpholin-2-yl)ethanol 2,2,2-trifluoroacetate]: the results for the IC50 on hERG channel, at recombinant human AMCase and on recombinant human CHIT1 were more than 100000 nM, less than 100 nM and less than 100 nM, respectively.

As for `CCC(O)(CC)[C@H]1CN(C2CCN(c3nnc(N)[nH]3)CC2)[C@@H](Cc2ccc(Cl)cc2)CO1` [Example 68, 3-((2R,5S)-4-(1-(5-amino-4H-1,2,4-triazol-3-yl)piperidin-4-yl)-5-(4-chlorobenzyl)-morpholin-2-yl)pentan-3-ol 2,2,2-trifluoroacetate], the concentration for half-maximal inhibition (IC50) at hERG channel was 25000 to 100000 nM; on recombinant human AMCase it was less than 100 nM; on recombinant human CHIT1, less than 100 nM.

As to `CC(C)CNC(=O)[C@H]1CN(C2CCN(c3nnc(N)[nH]3)CC2)[C@@H](Cc2ccc(Cl)cc2)CO1` [Example 69, (2R,5S)-4-(1-(5-amino-4H-1,2,4-triazol-3-yl)piperidin-4-yl)-5-(4-chlorobenzyl)-N-isobutylmorpholine-2-carboxamide 2,2,2-trifluoroacetate], the IC50 on hERG channel is 25000 to 100000 nM; on recombinant human AMCase, less than 100 nM; at recombinant human CHIT1 it was less than 100 nM.
